Measurements taken from patent US20180179596A1, “HISTONE MODIFICATION AGENTS FOR CANCER TREATMENT” (MOR RESEARCH APPLICATIONS LTD., priority 2015, published 2018).

What was measured:
[1] = tested on: histone H3 acetylation in NALM6 cells overexpressing KANSL1; assay: Histone H3 acetylation quantification in NALM6 cells overexpressing KANSL1 after MG-149 treatment; assay type: cell-based, human; conditions: 20 μM MG-149 added 24 h after KANSL1 plasmid transfection; histones extracted 48 h after transfection; FIG. 15
Description: NALM6 cell line was grown in RPMI (ATCC) supplemented with 10% fetal bovine serum (FBS) (Life Technologies), 0.1% L-Glutamine and 0.1% Penicillin Streptomycin (PS) (Life Technologies). Cells were cultured in a humidified atmosphere in an incubator at 37° C. with 5% CO2. Plasmid overexpression transfection was done by electroporation, using the Amaxa® Nucleofector technology (Lonza). Purified plasmid was sent to Maxi-Prep (Hy-Labs) and a concentration of 2 μg was taken for the transfection. As a negative control, a Green Fluorescent Protein (GFP) plasmid provided by the Amaxa kit was used.
Histones were extracted 48 h after transfection. Total histone protein concentration was adjusted to 400 ng/μl. Histone acetylation quantification was analyzed according to the manufacture's protocol (Epigentek).

[2] = tested on: MYST type of histone acetyltransferase (Tip60 and MOF); conditions: cited from earlier work

CCCCCCCc1ccc(CCc2cccc(O)c2C(=O)O)cc1 [MG-149]
acetylation of histone H3 (total H3 acetylation level) [1]: inhibited to near control levels | selectivity toward MYST type histone acetyltransferase [2]: selectivity toward the MYST type of histone acetyltransferase (Tip60 and MOF)
